Legend:
E. coli [1] = assay: MIC in the presence of a fixed concentration (2 μg/mL) of Rifampicin; type: cell-based, Escherichia coli; details: Rifampicin 2 μg/mL
K. pneumoniae [2] = assay: as above; type: cell-based, Klebsiella pneumoniae; details: Rifampicin 2 μg/mL
A. baumannii [3] = assay: MIC in the presence of […] of rifampicin; type: cell-based, Acinetobacter baumannii
P. aeruginosa ATCC 27853 = assay: In vivo efficacy, thigh infection in mice, IV dosing, 9 h model; parameters: species or system Pseudomonas aeruginosa; details: mouse thigh, dose 3.4 mg/kg drug base IV at 1, 3.5 and 6 h post-infection
Method: Compounds were administered in solution by intravenous (IV) bolus injection into the lateral tail vein. […] At 1 hour post infection, 4 animals were humanely euthanized using pentabarbitone overdose to provide a pre-treatment control group. At 9 hours post infection, the clinical condition of all animals was assessed prior to them being humanely euthanized by pentabarbitone overdose. Animal weight was determined before both thighs were removed and weighed individually. Individual thigh tissue samples were homogenized in ice cold sterile phosphate buffered saline. Thigh homogenates were then quantitatively cultured onto cystine lactose electrolyte deficient (CLED) agar and incubated at 37° C. for 24 hours before colonies were counted.

E. coli [4] = details: absence of a second agent, Table 6B
K. pneumoniae [5] = details: absence of a second agent, Table 6B
P. aeruginosa = details: absence of a second agent, Table 6B
A. baumannii [6] = details: absence of a second agent, Table 6B
[7] = test system: Escherichia coli ATCC 25922; details: mouse thigh, 1.47 mg/kg/dose free base IV at 1, 3.5 and 6 h post-infection, 9 h model
HK-2 cell line = assay: In vitro renal cell toxicity assay (resazurin reduction)
Method: MICs were determined as described herein. HK-2 cell IC50 values were determined as described herein. Values are reported relative to Polymyxin B.

[8] = A. baumannii ATCC BAA-747, Table 5C
[9] = A. baumannii ATCC BAA-747, Table 5D
[10] = A. baumannii NCTC 13424, Table 5C
[11] = A. baumannii NCTC 13424, Table 5D

| Substance | MIC in combination with Rifampicin, E. coli ATCC 25922 (E. coli [1]; Table 5C) [micrograms/mL] | MIC in combination with Rifampicin, E. coli ATCC 25922 (E. coli [1]; Table 5D) [micrograms/mL] | MIC in combination with Rifampicin, E. coli NCTC 13441 (E. coli [1]; Table 5C) [micrograms/mL] | MIC in combination with Rifampicin, E. coli NCTC 13441 (E. coli [1]; Table 5D) [micrograms/mL] | MIC in combination with Rifampicin, K. pneumoniae ATCC 4352 (K. pneumoniae [2]; Table 5C) [micrograms/mL] | MIC in combination with Rifampicin, K. pneumoniae ATCC 4352 (K. pneumoniae [2]; Table 5D) [micrograms/mL] | MIC in combination with Rifampicin, K. pneumoniae ATCC BAA-2146 (K. pneumoniae [2]; Table 5C) [micrograms/mL] | MIC in combination with Rifampicin, K. pneumoniae ATCC BAA-2146 (K. pneumoniae [2]; Table 5D) [micrograms/mL] | MIC in combination with Rifampicin, A. baumannii ATCC BAA-747 (A. baumannii [3]; [8]) [micrograms/mL] | MIC in combination with Rifampicin, A. baumannii ATCC BAA-747 (A. baumannii [3]; [9]) [micrograms/mL] | MIC in combination with Rifampicin, A. baumannii NCTC 13424 (A. baumannii [3]; [10]) [micrograms/mL] | MIC in combination with Rifampicin, A. baumannii NCTC 13424 (A. baumannii [3]; [11]) [micrograms/mL] | Log reduction from vehicle (CFU/g) (P. aeruginosa ATCC 27853) [log10 CFU/g] | MIC, E. coli ATCC 25922 (E. coli [4]) [micrograms/mL] | MIC, E. coli NCTC 13441 (E. coli [4]) [micrograms/mL] | MIC, K. pneumoniae ATCC 4352 (K. pneumoniae [5]) [micrograms/mL] | MIC, P. aeruginosa ATCC 27853 (P. aeruginosa) [micrograms/mL] | MIC, P. aeruginosa CCUG 59347 (P. aeruginosa) [micrograms/mL] | MIC, A. baumannii ATCC BAA-747 (A. baumannii [6]) [micrograms/mL] | MIC, A. baumannii NCTC 13424 (A. baumannii [6]) [micrograms/mL] | other results |
| --- | --- | --- | --- | --- | --- | --- | --- | --- | --- | --- | --- | --- | --- | --- | --- | --- | --- | --- | --- | --- | --- |
| (cis-5-cyclohexyl- piperidine)-3-carbonyl polymyxin B nonapeptide [Example D11] | ≤0.015 | 0.125 | 0.06 | 0.06 | 0.06 | 0.125 | 1 | 0.5 | 0.06 | 0.125 | 0.5 | 0.25 | 3.86 | 0.25 | 0.25 | 0.25 | 0.5 | 0.5 | 1 | 0.5 | MIC, K. pneumoniae ATCC BAA-2146 (K. pneumoniae [5]): 0.25 micrograms/mL |
| (S)-1-benzyl piperazine-2-carbonyl polymyxin B nonapeptide [Example D52] | – | – | – | – | – | – | – | – | – | – | – | – | – | 0.125 | 0.125 | 0.125 | 0.5 | 0.5 | 0.5 | 0.25 | MIC, K. pneumoniae ATCC BAA-2146 (K. pneumoniae [5]): 0.25 micrograms/mL; Mean log10 CFU reduction vs. control [7]: 4.04 log10 CFU |
| 1,2,3,4- tetrahydroisoquinoline- 4-carbonyl polymyxin B nonapeptide [Example D15] | ≤0.015 | ≤0.015 | 0.03 | 0.03 | 0.03 | ≤0.015 | 0.125 | 0.125 | ≤0.015 | ≤0.015 | ≤0.015 | ≤0.015 | 3.89 | 0.25 | 0.5 | – | 0.25 | 0.5 | 2 | 2 | HK-2 IC50 rel to PMB (HK-2 cell line): 17 |

Reference: patent US20210221848A1, “POLYMYXIN DERIVATIVES AND THEIR USE IN COMBINATION THERAPY TOGETHER WITH DIFFERENT ANTIBIOTICS” (priority 2014, published 2021)
